This passage reports IC50 results from patent US9725463B2, “Substituted heterocyclic compounds as CRAC modulators” (LUPIN LIMITED, priority 2013, dated 2017).

Structures are written as SMILES.

The subject of the assay is IL-2 secretion by Jurkat T cells. The assay is described as follows: Inhibition of IL-2 secretion. The class given is cell-based. The following applies: Homo sapiens; Jurkat T cells stimulated with PHA, 20 to 24 hours, IL-2 by ELISA. As to the method:
The CRAC channel modulatory activity of the compounds were thus evaluated by measuring the secretion of IL-2 by antigen stimulated T-cells in vitro. Alternatively, such activity can also be evaluated by assay methods known to one skilled in the art.
Inhibition of IL-2 secretion: Jurkat T cells were seeded at a density of 0.5 to 1 million cells per well in RPMI medium. Test compounds from this invention were added to the cells at different concentrations. This was followed by the addition of PHA, a T cell mitogen after 10 minutes. The cells were then incubated for 20 to 24 hours in a CO2 incubator at 37° C. After incubation with the compounds, cells were centrifuged, the supernatant was collected and processed for ELISA to quantitate the amount of IL-2 secreted. A commercial ELISA kit (R&D Systems, Inc. Minneapolis, Minn., USA) was used to estimate the IL-2 concentrations. Amount of IL-2 secreted by cells stimulated with PHA was considered as a 100% maximal signal and the decrease in amount of IL-2 secreted by cells treated with the test compounds was expressed as percent inhibition of the maximal signal. The dose response data was analyzed using 4-parametric sigmoidal dose response (variable slope) curve-fit.

In general, IC50 refers to the concentration needed to halve the response being measured. In the case of `CCc1cc2c(cc1-c1cnc(NC(=O)c3c(F)cccc3F)cn1)OCC(=O)N2C` [Example 121, N-(5-(6-Ethyl-4-methyl-3-oxo-3,4-dihydro-2H-benzo[b][1,4]oxazin-7-yl)pyrazin-2-yl)-2,6-difluorobenzamide], the IC50 is below 25 nM.

In turn, `CCc1cc2c(cc1-c1ccc(NC(=O)c3c(F)cccc3F)nc1)OCC(=O)N2C` [Example 122, N-(5-(6-Ethyl-4-methyl-3-oxo-3,4-dihydro-2H-benzo[b][1,4]oxazin-7-yl)pyridin-2-yl)-2,6-difluorobenzamide] returned an IC50 below 25 nM.

As to `Cc1cc2c(cc1-c1ccc(NC(=O)c3c(F)cccc3F)cc1)OCC(=O)N2C` [Example 123, N-(4-(4,6-Dimethyl-3-oxo-3,4-dihydro-2H-benzo[b][1,4]oxazin-7-yl)phenyl)-2,6-difluorobenzamide], the IC50 was below 25 nM.

The compound `Cc1cc2c(cc1-c1cnc(NC(=O)c3c(F)cccc3F)cn1)OCC(=O)N2C` [Example 126, N-(5-(4,6-Dimethyl-3-oxo-3,4-dihydro-2H-benzo[b][1,4]oxazin-7-yl)pyrazin-2-yl)-2,6-difluorobenzamide] yielded an IC50 of 100 to 500 nM.

With `Cc1cc2c(cc1-c1ccc(NCc3c(F)cccc3F)cc1)OCC(=O)N2C` [Example 127, 7-(4-((2,6-Difluorobenzyl)amino)phenyl)-4,6-dimethyl-2H-benzo [b][1,4]oxazin-3(4H)-one], the IC50 is 50 to 100 nM.

As for `CN1C(=O)COc2cc(C3CC3)c(-c3ccc(NC(=O)c4c(F)cccc4F)cc3)cc21` [Example 131, N-(4-(7-Cyclopropyl-4-methyl-3-oxo-3,4-dihydro-2H-benzo[b][1,4]oxazin-6-yl)phenyl)-2,6-difluorobenzamide], the IC50 fell in the range of 50 to 100 nM.

Regarding `CCc1cc2c(cc1-c1ccc(NC(=O)c3c(F)cccc3F)cc1)N(C)C(=O)CO2` [Example 132, N-(4-(7-Ethyl-4-methyl-3-oxo-3,4-dihydro-2H-benzo[b][1,4]oxazin-6-yl)phenyl)-2,6-difluorobenzamide], the IC50 is 25 to 50 nM.

With `CCc1cc2c(cc1-c1cnc(NC(=O)c3c(F)cccc3F)cn1)N(C)C(=O)CO2` [Example 133, N-(5-(7-Ethyl-4-methyl-3-oxo-3,4-dihydro-2H-benzo[b][1,4]oxazin-6-yl)pyrazin-2-yl)-2,6-difluorobenzamide], the IC50 was in the range of 100 to 500 nM.

On to `CCc1cc2c(cc1-c1ccc(C(=O)Nc3c(F)cncc3F)cc1)N(C)C(=O)CO2` [Example 135, N-(3,5-Difluoropyridin-4-yl)-4-(7-ethyl-4-methyl-3-oxo-3,4-dihydro-2H-benzo[b][1,4]oxazin-6-yl)benzamide], for which the IC50 was 100 to 500 nM.

On to `Cc1cc2oc(=O)n(C)c2cc1-c1ccc(C(=O)Nc2c(F)cccc2F)s1` [Example 140, N-(2,6-Difluorophenyl)-5-(3,6-dimethyl-2-oxo-2,3-dihydrobenzo[d]oxazol-5-yl)thiophene-2-carboxamide], for which the IC50 is below 25 nM.
